The subject of assay [1] is normal mice and mice with type 2 DM. Kind of assay: Intraperitoneal glucose tolerance test (IPGTT). Format: in vivo, ICR mice. The conditions noted are these: normal and type 2 DM mice; borapetoside A 0.1, 1 and 10 mgkg^−1; metformin. The protocol:
(§1) After three days of acclimatization, the mice had free access to a standard rodent chow (normal mice), a standard rodent chow after single […] streptozotocin (STZ) intraperitoneal injection (T1DM mice), and a fat-rich chow diet and fructose-sweetened water (T2DM mice) for 4 weeks. The induction of Type 1 DM was assessed and confirmed when the mice had plasma glucose levels ≧350 mgdL^−1, accompanied with polyuria, hyperphagia and decreased body weight. The induction Type 2 DM in the mice was assessed by measuring fasting plasma glucose levels and confirmed when plasma glucose level was ≧150 mgdL^−1 after the 4-week induction. The animals were assigned randomly into three groups, with seven animals in each group. In group I, the mice were treated with vehicle, 2% DMSO in normal saline, as the negative control. In group II, the mice were intraperitoneally treated with borapetoside A (0.1-10 mgkg^−1). In group Ill, the positive control, the mice received intraperitoneally metformin (300 mgkg^−1; Sigma Chemical Co., St. Louis, Mo., U.S.A.) or insulin (0.5 IUkg^−1; Insulin Actrapid® HM; Novo Nordisk, Denmark). In the acute study, mice under anesthesia received a single intraperitoneal administration of borapetoside A, negative control, or positive control. In the subacute study, mice received intraperitoneal administrations of borapetoside A, vehicle, or insulin twice a day for seven days.
(§2) Blood samples were collected from the orbital vascular plexus of the mice under anesthesia. Blood samples were then centrifuged at 13000 rpm for 5 min, and the plasma samples were collected and kept on ice prior to the assay. The plasma glucose concentration was measured by Glucose Kit Reagent (Biosystems S. A., Barcelona, Spain) following the manufacturer's instructions, and the insulin levels were estimated using mouse insulin ELISA kit (Mercodia AB, Uppsala, Sweden).
The mice were maintained under anesthesia throughout the procedure. Glucose (2.0 gkg^−1) was administered intraperitoneally. Blood samples were collected from the orbital vascular plexus at 0, 30, 60, 120 min. The concentrations of the plasma glucose were measured, and the values of AUC were calculated accordantly.

The test system of assay [2] is normal, T1DM and T2DM mice. Description: Plasma insulin levels before and after treatment. Format: in vivo, ICR mice. The conditions noted are these: for Plasma insulin Before-treatment: metformin 300 mgkg^−1 group; for Plasma insulin After-treatment: metformin 300 mgkg^−1 i.p. The protocol: The 4-week-old male ICR mice were purchased from the Animal Center of the College of Medicine, National Taiwan University (Taipei, Taiwan) with delicate humane care. This animal study was conducted by following the University ethical guidelines and the ‘Guide for the Care and Use of Laboratory Animals’ published by the US National Institutes of Health (NIH publication no. 85-23, revised 1996). The animal experiments were approved by the Institutional Animal Care and Use Committee (IACUC) of the National Taiwan University (IACUC No. 20110073). Animals were housed in a room at the constant temperature, 22±1° C., with 12 hours light and dark cycles.
as §1, §2

Structures are written as SMILES.

In the case of `CN(C)C(=N)N=C(N)N` [Metformin, metformin, reference compound], the “increase of plasma glucose level at 30 min in IPGTT, compared to the vehicle group” value in assay [1] is “significantly suppressed”. In addition, the “Plasma insulin Before-treatment” value in assay [2] (Normal mice) stood at 66.6 ± 1.3 pmol/L; in assay [2] (T1DM mice), 22.4 ± 0.4 pmol/L; in assay [2] (T2DM mice) it was 148.1 ± 15.2 pmol/L. Besides, the “Plasma insulin After-treatment” value in assay [2] (Normal mice) is 72 ± 3.1 pmol/L; in assay [2] (T1DM mice), 22.7 ± 0.3 pmol/L; in assay [2] (T2DM mice) it was 182.0 ± 27.7 pmol/L.

The values are drawn from patent US20150265682A1, “THERAPEUTIC METHODS AND COMPOSITIONS FOR TREATING DIABETES” (Orient Europharma Co., Ltd., priority 2014, published 2015).
